Laboratory results taken from patent publication US20240261359A1, “PHARMACEUTICAL COMPOSITION FOR USE PREVENTING AND CURING RESPIRATORY DISEASES IN WINTER” (Tianjin University of Traditional Chinese Medicine, priority 2020, published 2024).

How the values were obtained:
[1] = tested on: rats suffered from acute pharyngitis caused by Staphylococcus aureus; assay: Appearance behavior scoring and thymus weight, rat acute pharyngitis model caused by Staphylococcus aureus; assay type: in vivo, SD rats; conditions: ig, composition 3.5 g/kg, amoxicillin 0.36 g/kg, x ± s, n = 7
Procedure: Formulations of medicinal solutions: before the test, distilled water was used to formulate a medicinal solution with a concentration of 0.35 g/ml, which was intragastrically administrated in 1 ml/100 g body weight/time, 2 times/day, and on 7th day after pre-administrations, modelling was started and the intragastric administration was continued for 5 days.
On 1st day, at 1 h after Staphylococcus aureus infection, the positive medicinal group was intragastrically administrated at a dose of 0.36 g/kg (equivalently equal to the clinical dose of a human), 1 time/day for 5 consecutive days.
With scoring standard (from Standards for Preparation of Animal Models Suffered from Acute Pharyngitis, enacted by Traditional Chinese medicine Experimental Pharmacology Professional Committee of Traditional Chinese Medicine Institute, Traditional Chinese Medicine Pharmacology and Clinics 2018; 34 (1)), according to weights, mobility, fur color and gloss of rats, they were classified into 4 grades, as shown in the following Table 4.

[2] = tested on: rats suffered from acute pharyngitis caused by Staphylococcus aureus; assay: Peripheral white blood cell count and classification, rat acute pharyngitis model; assay type: in vivo, SD rats; conditions: composition 3.5 g/kg, amoxicillin 0.36 g/kg, x ± s, n = 7
Text: Before each group of animals were scarified, blood was taken by cutting tails and smeared on plates to conduct routine blood examinations about number of white blood cells, lymphocyte percentages and neutrophils percentages.

[3] = tested on: rats suffered from acute pharyngitis caused by Staphylococcus aureus; assay: Pathological morphology of pharyngeal tissues (HE staining), rat acute pharyngitis model; assay type: in vivo, SD rats; conditions: HE sections, FIG. 2A-2D
Procedure: Material taking: rats were anesthetized and pharyngeal tissues were taken and fixed in 4% paraformaldehyde for more than 24 h. The tissues were taken from the fixing solution and in a fume hood, the tissues at the target region were trimmed with a surgical knife. The trimmed tissues and the corresponding tags were placed in a dehydration box.
Dehydration: the dehydration was conducted by placing the dehydration box in a hanging basket, and in a dehydration machine, the dehydration was conducted with alcohols with gradient concentrations in order. 75% alcohol 1 h-85% alcohol 1 h-90% alcohol 1 h-95% alcohol 1 h-anhydrous ethanol I 30 min-anhydrous ethanol II 30 min-alcohol benzene 5-10 min-xylene I 5-10 min-xylene II 5-10 min-wax I 1 h-wax II 1 h-wax III 1 h.
Embedding: the tissues immersed with wax were embedded in an embedding machine. The molten wax was placed in an embedding frame first, and before it was solidified, the tissues were taken from the dehydration box and placed in the embedding frame according to requirements on embedded faces and corresponding tags were attached. They were cooled on a freezing table at −20° C., and after wax solidification, the wax block was taken from the embedding frame and trimmed.
Slicing: the trimmed wax block was sliced on a paraffin slicing machine, in a thickness of 4 μm. […]

[4] = tested on: rats suffered from acute pharyngitis caused by Staphylococcus aureus; assay: Inflammatory factors in rat serum by ELISA, rat acute pharyngitis model; assay type: in vivo, SD rats; conditions: composition 3.5 g/kg, amoxicillin 0.36 g/kg, x ± s, n = 7
Procedure: Rates were anesthetized. Blood was taken from abdominal aorta and injected into a procoagulant tube, standing for 45 min at room temperature, and it was centrifuged at 3500 rpm for 10 min. The supernatant was suction taken into a sterile EP tube and stored at −80° C. Before measurements, the samples were re-thawed at room temperature, and the IL-1β, IL-6 and TNF-α levels in serum were measured by enzyme-linked immunosorbent assay (ELISA). The operations were carried out according to the instruction of the kit, and each index was detected by an enzyme-labelled meter at the absorbance 450 nm.

[5] = tested on: rats suffered from acute pharyngitis caused by Staphylococcus aureus; assay: Scoring of pharyngeal lesions, rat acute pharyngitis model; assay type: in vivo, SD rats; set-up: key to Pharyngeal inflammatory response grade of most animals: −: pharyngeal tissues were in light red color, and they had moist and glossy surfaces, and no secreted substances, no congestion, no swelling and other pathological phenomena; +: the mucosa in the pharynx had poor gloss, and there were a small amount of secreted substances, and slight congestions and swelling; ++: the mucosa in the pharynx was in a dark red color and poor in the gloss, and secreted substances exist therein, accompanying by moderate congestions and swelling and other phenomena; +++: the mucosa in the pharynx exhibited a dark red color, increased secretion of mucus, and evident congestion and swelling
NF-κB = assay type: cell-based; conditions: dexamethasone 10 μM with TNF-α, 6 h; L/S; x ± SD, n = 18; model 4641.34, control 17.46
Procedure: (§1) The 293T cells in the logarithmic growth phase were taken and inoculated into a 96-well cell culture plate at a density of 2×10^5 cell/mL, and after growth along the walls to 70-80%, a PEI (1 mg/ml) transfecting agent was used to simultaneously transfect them with ARE and NF-κB luciferase reporter plasmids pGL4.37, pGL4.32 (100 ng/well) and a renilla luciferase reported plasmid pGL4.75 (10 ng/well), and they were cultured for 24 h.
(§2) After 24-h culture, the cells transfected with the ARE luciferase reporter plasmid pGL4.37 are added with tBHQ (10 μM) and safety concentrations of the sample solutions of the individual inventive pharmaceutical composition groups, and by setting a control group, and they were cultured 6 h; the cells transfected with NF-kB luciferase reporter plasmid pGL4.32 were respectively added with dexamethasone (10 μM) diluted by a TNF-α complete culture medium, and safety concentrations of the sample solutions of the individual inventive pharmaceutical composition groups, and by setting a control group, and a model group, and they were cultured for 6 h. The supernatant was discarded, and the cells were rinsed with PBS. After splitting, they were detected by using a Dual-Luciferase detection system. Each set of experiments were configured with 6 compound wells, with 3 repetitions. […]

ARE = ARE luciferase reporter gene activity in transfected 293T cells; assay type: cell-based; conditions: tBHQ 10 μM, 6 h; relative luciferase activity L/S; x ± SD, n = 18; control 0.76
Procedure: as §1, §2

[6] = of 7 rats, composition 3.5 g/kg, amoxicillin 0.36 g/kg

SMILES: CC1(C)S[C@@H]2[C@H](NC(=O)[C@H](N)c3ccc(O)cc3)C(=O)N2[C@H]1C(=O)O [Amoxicillin]
- Thymus gland [1]: 0.26 ± 0.11 g
- Fur gloss (appearance behavior score) ([1]; index grade 0-3 (Table 4)): 1.14 ± 0.38
- Mobility (appearance behavior score) ([1]; index grade 0-3 (Table 4)): 1.43 ± 0.53
- L (%), percentages of lymphocytes [2]: 76.37 ± 7.42 %
- N (%), percentages of neutrophils [2]: 19.5 ± 6.77 %
- WBC (×10^9/L), white cells [2]: 8.17 ± 30^ ×10^9/L
- Pathological morphology of pharyngeal tissues (inflammatory cell infiltration, mucosa recovery) [3]: very similar to those in the inventive pharmaceutical composition group
- IL-1β (pg/mL) in peripheral blood [4]: 254.04 ± 59.15 pg/mL
- IL-6 (pg/mL) in peripheral blood [4]: 28.21 ± 8.67 pg/mL
- TNF-α (pg/mL) in peripheral blood [4]: 145.14 ± 30.98 pg/mL
- Pharyngeal lesions: number of animals in grade + [5, 6]: 6
- Pharyngeal lesions: number of animals in grade ++ [5, 6]: 1
- Pharyngeal lesions: number of animals in grade +++ [5, 6]: 0
- Pharyngeal lesions: number of animals in grade − [5, 6]: 0
- Pharyngeal inflammatory response grade of most animals ([5]; summary of Table 6): +

SMILES: C[C@@H]1C[C@H]2[C@@H]3CCC4=CC(=O)C=C[C@]4(C)[C@@]3(F)[C@@H](O)C[C@]2(C)[C@@]1(O)C(=O)CO [Dex, Dexamethasone]
- NF-κB luciferase activity of 293T cells (NF-κB): 968.61

SMILES: CC(C)(C)c1cc(O)ccc1O [tBHQ, Tertiary butylhydroquinone]
- ARE luciferase activity of 293T cells (ARE): 3.55
